The values that follow come from US10189838B2, “Aza-oxo-indoles for the treatment and prophylaxis of respiratory syncytial virus infection” (Hoffmann-La Roche Inc., priority 2013, dated 2019).

This test relates to RSV Long strain. In words: Viral cytopathic effect (CPE) assay, RSV Long strain. It is filed as cell-based, Respiratory Syncytial Virus. As to conditions: human respiratory syncytial virus, 144 h, cell viability after 6 days (Cell Counting kit-8). The protocol: EC50: the concentration of a compound where 50% of its maximal protection effect against viral induced CPE is observed
LongStrain: an A subtype RSV strain obtained from ATCC with catalog number VR-26
To measure anti-RSV activity of compounds, 96-well plates are seeded with 6×10^3 cells per well in Dulbecco's modified Eagle's medium (DMEM) containing 10% fetal bovine serum (FBS). Cells are infected the next day with sufficient RSV Long strain (ATCC) to produce an approximately 80-90% cytopathic effect after 6 days, in the presence of serial half-log diluted compound in a total volume of […] per well. The viability of cells is assessed after 6 days using Cell Counting kit-8 (Dojindo Molecular Technologies). The absorbance at 450 nm and referenced at 630 nm is measured to determine 50% effective concentration (EC50)
In general terms: Protection from cytopathic effect is a common read-out in antiviral testing.
Turning to `CCOC(=O)CCn1c(CN2C(=O)C3(CC3)c3ccncc32)cc2cc(Cl)cc(F)c21` [Example 13, Ethyl 3-{5-chloro-7-fluoro-2-[(2′-oxospiro[cyclopropane-1,3′-pyrrolo[2,3-c]pyridin]-1′(2′H)-yl)methyl]-1H-indol-1-yl}propanoate], the EC50 – broadly, the concentration needed to bring the measured effect to its halfway point – was 18 nM. Regarding `CS(=O)(=O)N1CCN(CCn2c(CN3C(=O)C4(CC4)c4ccncc43)cc3cc(Cl)ccc32)CC1` [Example 27-1, 1′-[(5-Chloro-1-{2-[4-(methylsulfonyl)piperazin-1-yl]ethyl}-1H-indol-2-yl)methyl]spiro[cyclopropane-1,3′-pyrrolo[2,3-c]pyridin]-2′(1′H)-one], the response was half-maximal at 6 nM (EC50).

Molecule `O=C1N(Cc2cc3nc(Cl)ccc3n2CCS(=O)(=O)C2CC2)c2cnccc2C12CC2` [Example 4-14, 1′-({5-Chloro-1-[2-(cyclopropylsulfonyl)ethyl]-1H-pyrrolo[3,2-b]pyridin-2-yl}methyl)spiro[cyclopropane-1,3′-pyrrolo[2,3-c]pyridin]-2′(1′H)-one] yielded an EC50 of 72 nM. In the case of `O=C1N(Cc2nc3cc(Cl)cc(F)c3n2CC2COC2)c2cnccc2C12CC2` [Example 38-3, 1′-{[5-Chloro-7-fluoro-1-(oxetan-3-ylmethyl)-1H-benzimidazol-2-yl]methyl}spiro[cyclopropane-1,3′-pyrrolo[2,3-c]pyridin]-2′(1′H)-one] it was 30 nM; in that of `CN(C(=O)CCn1c(CN2C(=O)C3(CC3)c3ccncc32)cc2cc(Cl)ccc21)S(C)(=O)=O` [Example 19-3, 3-{5-Chloro-2-[(2′-oxospiro[cyclopropane-1,3′-pyrrolo[2,3-c]pyridin]-1′(2′H)-yl)methyl]-1H-indol-1-yl}-N-methyl-N-(methylsulfonyl)propanamide], 47 nM; in that of `CS(=O)(=O)CCn1c(CN2C(=O)C3(CCCC3)c3ccncc32)cc2cc(Cl)ccc21` [Example 3-2, 1′-({5-Chloro-1-[2-(methylsulfonyl)ethyl]-1H-indol-2-yl}methyl)spiro[cyclopentane-1,3′-pyrrolo[2,3-c]pyridin]-2′(1′H)-one], 290 nM. The molecule `CS(=O)(=O)CCCCn1c(CN2C(=O)C3(CC3)c3ccncc32)cc2cc(Cl)ncc21` [Example 4-7, 1′-({5-Chloro-1-[4-(methylsulfonyl)butyl]-1H-pyrrolo[2,3-c]pyridin-2-yl}methyl)spiro[cyclopropane-1,3′-pyrrolo[2,3-c]pyridin]-2′(1′H)-one] came in with an EC50 of 27 nM. `O=C1N(Cc2cc3cc(Cl)ccc3n2CCCN2CCCS2(=O)=O)c2cnccc2C12CC2` [Example 7-10, 1′-({5-Chloro-1-[3-(1,1-dioxido-1,2-thiazolidin-2-yl)propyl]-1H-indol-2-yl}methyl)spiro[cyclopropane-1,3′-pyrrolo[2,3-c]pyridin]-2′(1′H)-one] registered an EC50 of 29 nM. Next, `[2H]C([2H])(c1cc2cc(Cl)ccc2n1CCS(C)(=O)=O)N1C(=O)C2(CC2)c2ccncc21` [Example 9, 1′-[{5-Chloro-1-[2-(methylsulfonyl)ethyl]-1H-indol-2-yl}(^2H2)methyl]spiro[cyclopropane-1,3′-pyrrolo[2,3-c]pyridin]-2′(1′H)-one]: 19 nM. Next, `O=C(CCn1c(CN2C(=O)C3(CC3)c3ccncc32)cc2cc(Cl)ccc21)NS(=O)(=O)C1CC1` [Example 19-1, 3-{5-Chloro-2-[(2′-oxospiro[cyclopropane-1,3′-pyrrolo[2,3-c]pyridin]-1′(2′H)-yl)methyl]-1H-indol-1-yl}-N-(cyclopropylsulfonyl)propanamide]: 1180 nM; `NC(=O)CCn1c(CN2C(=O)C3(CC3)c3cccnc32)cc2cc(Cl)ccc21` [Example 18-2, 3-{5-Chloro-2-[(2′-oxospiro[cyclopropane-1,3′-pyrrolo[2,3-b]pyridin]-1′(2′H)-yl)methyl]-1H-indol-1-yl}propanamide]: 711 nM. `NC1(Cn2c(CN3C(=O)C4(CC4)c4ccncc43)nc3cc(Cl)ccc32)COC1` [Example 39-1, 1′-({1-[(3-Aminooxetan-3-yl)methyl]-5-chloro-1H-benzimidazol-2-yl}methyl)spiro[cyclopropane-1,3′-pyrrolo[2,3-c]pyridin]-2′(1′H)-one] returned an EC50 of 18 nM. `CCS(=O)(=O)CCn1c(CN2C(=O)C3(CC3)c3cccnc32)cc2cc(Cl)ccc21` [Example 2-3, 1′-({5-Chloro-1-[2-(ethylsulfonyl)ethyl]-1H-indol-2-yl}methyl)spiro[cyclopropane-1,3′-pyrrolo[2,3-b]pyridin]-2′(1′H)-one]: the EC50 amounted to 247 nM. `O=C1N(Cc2cc3cc(Cl)ccc3n2CCCS(=O)(=O)N2CCCC2)c2cnccc2C12CC2` [Example 7-5, 1′-({5-Chloro-1-[3-(pyrrolidin-1-ylsulfonyl)propyl]-1H-indol-2-yl}methyl)spiro[cyclopropane-1,3′-pyrrolo[2,3-c]pyridin]-2′(1′H)-one] showed an EC50 of 20 nM. The molecule `NC1(Cn2c(CN3C(=O)C4(CC4)c4ccncc43)nc3cc(Cl)cc(F)c32)COC1` [Example 39-2, 1′-({1-[(3-Aminooxetan-3-yl)methyl]-5-chloro-7-fluoro-1H-benzimidazol-2-yl}methyl)spiro[cyclopropane-1,3′-pyrrolo[2,3-c]pyridin]-2′(1′H)-one] yielded an EC50 of 227 nM. The molecule `CS(=O)(=O)CCn1c(CN2C(=O)C3(CC3)c3cnccc32)cc2cc(Cl)ccc21` [Example 3-1, 1′-({5-Chloro-1-[2-(methylsulfonyl)ethyl]-1H-indol-2-yl}methyl)spiro[cyclopropane-1,3′-pyrrolo[3,2-c]pyridin]-2′(1′H)-one] returned an EC50 of 201 nM. Take `CS(=O)(=O)CCCn1c(CN2C(=O)C3(CCC3)c3ccncc32)cc2cc(Cl)cnc21` [Example 4-12, 1′-({5-Chloro-1-[3-(methylsulfonyl)propyl]-1H-pyrrolo[2,3-b]pyridin-2-yl}methyl)spiro[cyclobutane-1,3′-pyrrolo[2,3-c]pyridin]-2′(1′H)-one]: the EC50 was 56.8 nM.

Molecule `CS(=O)(=O)CCn1c(CN2C(=O)C3(CC3)c3ccncc32)cc2ccccc21` [Example 1-1, 1′-({1-[2-(Methylsulfonyl)ethyl]-1H-indol-2-yl}methyl)spiro[cyclopropane-1,3′-pyrrolo[2,3-c]pyridin]-2′(1′H)-one] returned an EC50 of 220 nM. Take `CN(C(=O)CCn1c(CN2C(=O)C3(CC3)c3ccncc32)cc2cc(Cl)ccc21)S(=O)(=O)C1CC1` [Example 19-2, 3-{5-Chloro-2-[(2′-oxospiro[cyclopropane-1,3′-pyrrolo[2,3-c]pyridin]-1′(2′H)-yl)methyl]-1H-indol-1-yl}-N-(cyclopropylsulfonyl)-N-methylpropanamide]: the EC50 turned out to be 59 nM. For `O=C1CN(S(=O)(=O)CCCn2c(CN3C(=O)C4(CC4)c4ccncc43)cc3cc(Cl)ccc32)CCN1` [Example 7-6, 1′-[(5-Chloro-1-{3-[(3-oxopiperazin-1-yl)sulfonyl]propyl}-1H-indol-2-yl)methyl]spiro[cyclopropane-1,3′-pyrrolo[2,3-c]pyridin]-2′(1′H)-one], the EC50 stood at 7 nM.

Molecule `O=C1N(Cc2cc3cc(Cl)ccc3n2CCN2CCCS2(=O)=O)c2cnccc2C12CC2` [Example 7-7, 1′-({5-Chloro-1-[2-(1,1-dioxido-1,2-thiazolidin-2-yl)ethyl]-1H-indol-2-yl}methyl)spiro[cyclopropane-1,3′-pyrrolo[2,3-c]pyridin]-2′(1′H)-one] came in with an EC50 of 35 nM.

Consider `CS(=O)(=O)CCn1c(CN2C(=O)C3(CC3)c3ccncc32)cc2cc(C(F)(F)F)ccc21` [Example 1-10, 1′-({1-[2-(Methylsulfonyl)ethyl]-5-(trifluoromethyl)-1H-indol-2-yl}methyl)spiro[cyclopropane-1,3′-pyrrolo[2,3-c]pyridin]-2′(1′H)-one], for which it took 557 nM to reach a half-maximal effect (EC50). `CN(C)S(=O)(=O)CCCn1c(CN2C(=O)C3(CC3)c3ccncc32)cc2cc(Cl)cnc21` [Example 7-2, 3-{5-Chloro-2-[(2′-oxospiro[cyclopropane-1,3′-pyrrolo[2,3-c]pyridin]-1′(2′H)-yl)methyl]-1H-pyrrolo[2,3-b]pyridin-1-yl}-N,N-dimethylpropane-1-sulfonamide]: the EC50 amounted to 64 nM.

Consider `CCS(=O)(=O)CCn1c(CN2C(=O)C3(CC3)c3ccncc32)cc2cc(Cl)ccc21` [Example 2-1, 1′-({5-Chloro-1-[2-(ethylsulfonyl)ethyl]-1H-indol-2-yl}methyl)spiro[cyclopropane-1,3′-pyrrolo[2,3-c]pyridin]-2′(1′H)-one], for which the EC50 came to 7.67 nM.

In turn, `CCS(=O)(=O)CCc1c(CN2C(=O)C3(CC3)c3cccnc32)[nH]c2cc(Cl)ccc12` [Example 32-1, 1′-({6-Chloro-3-[2-(ethylsulfonyl)ethyl]-1H-indol-2-yl}methyl)spiro[cyclopropane-1,3′-pyrrolo[2,3-b]pyridin]-2′(1′H)-one] displayed an EC50 of 9 nM. Next, `CS(=O)(=O)NCCn1c(CN2C(=O)C3(CC3)c3ccncc32)cc2cc(Cl)ccc21` [Example 27-2, N-(2-{5-Chloro-2-[(2′-oxospiro[cyclopropane-1,3′-pyrrolo[2,3-c]pyridin]-1′(2′H)-yl)methyl]-1H-indol-1-yl}ethyl)methanesulfonamide]: 11.5 nM; `O=C1N(Cc2cc3cc(Cl)ccc3n2CCCCN2CCCS2(=O)=O)c2cnccc2C12CC2` [Example 7-8, 1′-({5-Chloro-1-[4-(1,1-dioxido-1,2-thiazolidin-2-yl)butyl]-1H-indol-2-yl}methyl)spiro[cyclopropane-1,3′-pyrrolo[2,3-c]pyridin]-2′(1′H)-one]: 18 nM.
